Reference: PubChem BioAssay (NCI)
Where “and” joins values, the source holds several entries; their conditions need not be identical. Identical values can stand only once.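 Test compounds were applied to cells in 96-well plates for 48 hours at 5 doses. Here, GI50 denotes the concentration required for 50% inhibition of growth. TGI is the concentration that stops growth completely.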

What was measured:
Assay in all cases: growth of human tumour cells (NCI), 48 h
[1] = system: OVCAR-4 ovarian
[2] = system: T-47D breast
[3] = system: HCC-2998 colon
[4] = system: UACC-62 melanoma
[5] = system: HCT-116 colon
[6] = system: OVCAR-3 ovarian
[7] = system: EKVX NSCLC
[8] = system: SNB-75 CNS
[9] = system: CAKI-1 renal
[10] = system: SK-MEL-2 melanoma

## CC(=O)Oc1ccc2c(c1)CC[C@@H]1C2CC[C@]2(C)C(=O)NC(=O)CC12 (some centres undefined)
[1]
  TGI: > 100 µM
[2]
  TGI: > 100 µM
[3]
  TGI: > 100 µM
[4]
  TGI: > 100 µM
[5]
  TGI: > 100 µM
[6]
  TGI: > 100 µM
[7]
  TGI: > 100 µM
[8]
  TGI: > 100 µM
[9]
  TGI: > 100 µM

## Nc1[nH]c(=O)ncc1CO
[1]
  GI50: > 100 µM
  TGI: > 100 µM
[2]
  GI50: > 100 µM
  TGI: > 100 µM
[3]
  GI50: > 100 µM
  TGI: > 100 µM
[4]
  GI50: > 100 µM
  TGI: > 100 µM
[5]
  GI50: > 100 µM
  TGI: > 100 µM
[6]
  GI50: > 100 µM
  TGI: > 100 µM
[8]
  GI50: > 100 µM
  TGI: > 100 µM
[10]
  GI50: > 100 µM
  TGI: > 100 µM
[9]
  GI50: > 100 µM
  TGI: > 100 µM

## Cc1nc(N)nc2ccccc12
[1]
  TGI: > 100 µM
[2]
  TGI: > 100 µM
[3]
  GI50: > 100 µM
  TGI: > 100 µM
[4]
  TGI: > 100 µM
[5]
  TGI: > 100 µM
[6]
  TGI: > 100 µM
[7]
  TGI: > 100 µM
[8]
  TGI: > 100 µM
[10]
  TGI: > 100 µM
[9]
  TGI: > 100 µM

## O=c1c2ccccc2oc2ccc(OCCCCCCN3CCCCCC3)cc12
[1]
  GI50: 3.03 µM
  TGI: 16.7 µM
[2]
  GI50: 2.26 µM
  TGI: 8.52 µM
[3]
  GI50: 2.97 µM
  TGI: 11.6 µM
[4]
  GI50: 2.29 µM
  TGI: 4.78 µM
[5]
  GI50: 2.13 µM
  TGI: 5.16 µM
[6]
  GI50: 4.09 µM
  TGI: 16.1 µM
[7]
  GI50: 2.88 µM
  TGI: 13.9 µM
[8]
  GI50: 3.11 µM
  TGI: 14.1 µM
[10]
  GI50: 3.05 µM
  TGI: 9.75 µM

## Cc1cc(Cl)ccc1Nc1nc(C(F)(F)F)ccc1C(=O)N1CCN(c2cccc(Cl)c2)CC1
[1]
  GI50: 30 µM
  TGI: > 100 µM
[2]
  GI50: > 100 µM
  TGI: > 100 µM
[3]
  GI50: 49.3 µM
  TGI: > 100 µM
[4]
  GI50: > 100 µM
  TGI: > 100 µM
[5]
  GI50: 37.3 µM
  TGI: > 100 µM
[6]
  GI50: 7.82 µM
  TGI: > 100 µM
[7]
  GI50: > 100 µM
  TGI: > 100 µM
[8]
  GI50: 1.11 µM
  TGI: 87.5 µM
[10]
  GI50: > 100 µM
  TGI: > 100 µM
[9]
  GI50: 90.7 µM
  TGI: > 100 µM

## CC1=NN(C(=O)c2ccccc2O)C(=O)/C1=C/c1cccc([N+](=O)[O-])c1
[1]
  TGI: > 100 µM
[2]
  TGI: > 100 µM
[3]
  TGI: > 100 µM
[4]
  TGI: 27.1 µM
[5]
  TGI: > 67.7 µM
[6]
  TGI: > 47.5 µM
[7]
  TGI: > 100 µM
[8]
  TGI: > 100 µM
[10]
  TGI: > 21.9 µM
[9]
  TGI: > 100 µM

## CC(=O)OC1CC2C(=O)C(=O)C1(C)C2(C)C (centres undefined)
[1]
  TGI: > 100 µM
[2]
  TGI: > 100 µM
[3]
  TGI: > 100 µM
[4]
  TGI: > 100 µM
[5]
  TGI: > 100 µM
[6]
  TGI: > 100 µM
[7]
  TGI: > 100 µM
[8]
  TGI: > 100 µM

## CC(=O)Oc1ccc(/C=N/NC(N)=S)nc1
[1]
  GI50: 6.03 µM
  TGI: > 100 µM
[2]
  GI50: 5.39 µM
  TGI: > 100 µM
[3]
  GI50: 8.96 µM
  TGI: > 100 µM
[4]
  GI50: 4.36 µM
  TGI: > 100 µM
[5]
  GI50: 4.48 µM
  TGI: > 100 µM
[6]
  GI50: 2.72 µM
  TGI: > 100 µM
[7]
  GI50: 10.8 µM
  TGI: > 100 µM
[8]
  GI50: 11.7 µM
  TGI: > 100 µM
[10]
  GI50: 77 µM
  TGI: > 100 µM

## Nc1ccc(S(=O)(=O)Nc2cnc3c(Cl)cccc3n2)cc1
[1]
  GI50: > 78.1 µM
  TGI: > 672 µM
[2]
  GI50: 48.2 µM
  TGI: > 750 µM
[3]
  GI50: 149 µM
  TGI: > 663 µM
[4]
  GI50: 56.3 µM
  TGI: > 93.3 µM and 122 µM
[5]
  GI50: 14.7 µM
  TGI: 609 µM
[6]
  TGI: 411 µM
[7]
  TGI: 712 µM
[8]
  GI50: 51.6 µM
  TGI: > 95 µM and 682 µM
[10]
  TGI: 707 µM
[9]
  GI50: 99.2 µM
  TGI: > 698 µM

## O=C(c1ccc(Cl)cc1)C1OC12C(=O)Nc1ccccc12 (centres undefined)
[1]
  TGI: 34.1 µM
[2]
  TGI: 47.7 µM
[3]
  TGI: 34.1 µM
[4]
  TGI: 32.3 µM
[5]
  TGI: 13.6 µM
[6]
  TGI: > 55.7 µM
[7]
  TGI: 33.4 µM
[8]
  TGI: 32 µM
[10]
  TGI: 22.3 µM
[9]
  TGI: 20.6 µM

## CC1CCC2N(C1)CC1C3(O)CC45OC6(O)C(O)CCC4(C)C6CCC5C3(O)CC(O)C1(O)C2(C)O (centres undefined)
[1]
  TGI: > 100 µM
[2]
  TGI: > 100 µM
[3]
  TGI: > 100 µM
[4]
  TGI: > 100 µM
[5]
  TGI: > 100 µM
[6]
  TGI: > 100 µM
[7]
  TGI: > 100 µM
[8]
  TGI: > 100 µM
[10]
  TGI: > 100 µM
[9]
  TGI: > 100 µM

## CO[C@@]12[C@@H]3NC3CN1C1=C(C(=O)C(N)=C(C)C1=O)[C@@H]2COC(N)=O (some centres undefined)
[1]
  GI50: 2.22 µM
  TGI: 33.9 µM
[2]
  GI50: 1.67 µM
  TGI: 54.5 µM
[3]
  GI50: 0.46 µM
  TGI: 2.02 µM
[5]
  GI50: 0.53 µM
  TGI: 3.26 µM
[6]
  GI50: 1.07 µM
  TGI: 3.07 µM
[7]
  GI50: 3.09 µM
  TGI: 20.2 µM
[10]
  GI50: 1.91 µM
  TGI: 4.41 µM
[9]
  TGI: 2.08 µM
